Measurements: US20240041902A1, “COMPOSITIONS AND METHODS FOR THE TREATMENT OF UROTHELIAL CANCER” (The State of Israel, Ministry of Agriculture & Rural …, priority 2020, published 2024)
Where two headings read alike, the source gives them in different places.

Tests used:
Assay type in all cases: cell-based, human
[1] = test system: T24 cells; experiment: Bliss independence drug interaction model on T24 cell viability; details: for inhibition at 1 µg/mL / inhibition at 2 µg/mL / inhibition at 3 µg/mL / inhibition at 5 µg/mL / inhibition at 7.5 µg/mL / inhibition at 10 µg/mL / inhibition at 12.5 µg/mL: Homo sapiens, T-24
Experimental: (§1) Cell proliferation assay—XTT assay was carried out as described in [34], on T24 and HTB-9 cells. 1*10^4 cells/well were seeded in 96-wells plates, methanol was used as a vehicle control at the same concentration as the treatments. Mitomycin-C (MMC) was used as positive control. Cell viability was calculated relative to the vehicle control after subtracting blank.
Analysis of combined drug effects—Drug synergy was determined by the Bliss independence drug interaction model as described in [31], on T24 cells.

[2] = test system: T24 cells; experiment: Cell migration scratch assay; details: sub-lethal: CBD 10, CBC+THC 8.6+1.4, MMC 4, CBC 10, THC 10 μg/mL; vs control
Experimental: The scratch area, indicated by the cells that migrated to the scratch at time x, was calculated as the percentage of the scratch area at time x from time 0: […]

[3] = test system: T24 cells; experiment: XTT viability of T24 cells with or without CB1/CB2 inverse agonist, TRPV1/TRPV2 antagonist or TRPA1 blocker; details: CBD 13.8 μg/mL; inverse agonist 10 μM
Experimental: For quantification of phytocannabinoids by analytical HPLC, the standards were dissolved in methanol at various concentrations from 0-25 μg/mL.
as §1

[4] = test system: CB1 receptor (CNR1); experiment: qRT-PCR of CB1 receptor RNA level in T24 cells; details: 6 hours; CBC+THC 11.2+1.8 μg/mL or CBD 9.2 μg/mL; relative to control, HPRT1 reference
Experimental: (§2) Quantitative real-time (qRT) PCR—qRT PCR was carried out as described in [34]. Briefly, T24 cells were treated with cannabis compounds or methanol as a vehicle control for 6 h. Cells were then harvested and total RNA was isolated and reverse-transcribed. The expression of each target gene was normalized to the expression of Hypoxanthine Phosphoribosyltransferase 1 (HPRT1; geneID 3251) mRNA as the 2^−ΔΔCt and is presented as the ratio of the target gene to HPRT1 mRNA, expressed as 2^−ΔCt, where Ct is the threshold cycle and ΔCt=Ct Target gene—Ct HPRT1. Experiments were repeated three times. The primers were: for CB1 (CNR1; geneID 1268) forward 5′-[…]-3′ (SEQ ID NO: 1) and reverse 5′-[…]-3′ (SEQ ID NO: 2); for CB2 (CNR2; geneID 1269) forward 5′-[…]-3′ (SEQ ID NO: 3) and reverse 5′-[…]-3′ (SEQ ID NO: 4).

[5] = test system: CB2 receptor (CNR2); experiment: qRT-PCR of CB2 receptor RNA level in T24 cells; details: 6 hours; CBC+THC 11.2+1.8 μg/mL or CBD 9.2 μg/mL; relative to control, HPRT1 reference
Experimental: as §2

[6] = test system: T24 cells; experiment: Cell cycle analysis (PI staining, FACS); details: 24 hours; CBD 15 μg/mL; insignificant increase, control 17.4%
Experimental: For cell cycle analysis, cells were seeded in 6-wells culture plates at a concentration of 5×10^5 cells per well in McCoy (for T24 cells). The following day, media was replaced with new media containing treatments or methanol control. Cells were then incubated for 24 h at 37° C. in a humidified 5% CO2, 95% air atmosphere. Following 24 h of incubation, media was replaced with new media containing treatment or methanol control. Cells from each well were then harvested and collected separately and centrifuged for 2 min at 900 g. The cell pellet was washed once with 1 mL of PBS and fixed with 70% cold ethanol at 4° C. for at least 1 h. The fixed cells were pelleted out and washed twice with 1 mL of PBS. The cell pellet was then stained by re-suspending in 250 μL of PI solution (50 μg/mL) containing RNase A (100 μg/mL) for 30 min in the dark. Following, 200 μL of PBS were added to each tube and cells were analyzed using FACS.
Cell proliferation assay—XTT assay was carried on T24 and HTB-9 cells. 1×10^4 cells/well were seeded in 96-well plates. […] MMC was used as a positive control. XTT reagent (2,3,-bis (2-methoxy-4-nitro-5-sulfophenyl)-5-[(phenylamino)-carbonyl]-2H-tetrazolium inner salt) was added for 2 h at 37° C. in a humidified atmosphere of 5% CO2 to 95% air. Absorbance was recorded by a Synergy 111 hybrid reader photometer (BioTek) at 490 nm with 650 nm of reference wavelength. Cell survival (% r, viability) was estimated using the equation: % cell survival=(A490−A650) of treatment/(A490−A650) of solvent control×100. A490 and A650 are the absorbencies of the XTT colorimetric reaction. […] Apoptosis assay and cell cycle analysis—T24 cells were treated with cannabis compounds or with methanol as vehicle control. The cell cycle was determined at 24 hours and apoptosis was determined at 48 hours following treatment. Staining and detection followed the manufacturer's instructions. […] Then 200 μL of PBS was added to each tube and the cells were analyzed using FACS.

[7] = test system: T24 cells; experiment: Apoptosis assay (Annexin V-FITC and PI, FACS); details: 48 hours; CBC+THC 17.2+2.8, CBD 15, MMC 8 μg/mL; control 46.2%
Experimental: Apoptosis assay and cell cycle analysis—T24 cells were treated with cannabis compounds or with methanol as a vehicle control. Cell cycle was determined at 24 h and apoptosis was determined at 48 h post-treatment. Staining and detection followed manufacturer instructions. Briefly, for the apoptosis assay, the MEBCYTO Apoptosis Kit with Annexin V-FITC and PI (MBL, Enco, 4700) was used. Cells were seeded in culture 6-wells plates, at density of 5×10^5 cells per well in McCoy's 5A (for T24 a cells) or in RPMI (for HTB-9 cells). The following day, media was replaced with new media containing treatment or methanol control. Cells were then incubated for 24 or 48 h at 37° C. in a humidified 5% CO2 95% air atmosphere. Following incubation, cells were harvested and collected separately. Tubes were centrifuged for 2 min at 900 g and cell pellets were resuspended and washed twice with 1 mL of PBS. The cells in each sample were resuspended in 85 μL of Annexin binding buffer. Cells were stained using 10 μL of Annexin V-FITC solution and 5 μL of propidium iodide (PI) working solution followed by 15 min incubation in the dark at room temperature. Then 400 μL of Annexin V binding buffer were added to each tube and flow cytometry was performed using a FORTESA flow cytometer (FACS). Cells were considered to be apoptotic if they were Annexin V+/PI− (early apoptotic) or Annexin V+/PI+ (late apoptotic). Live cells were defined as Annexin V−/PI−, and Annexin V−/PI+ as necrotic.
Cell proliferation assay—XTT assay was carried on T24 and HTB-9 cells. 1×10^4 cells/well were seeded in 96-well plates. […] MMC was used as a positive control. […] Absorbance was recorded by a Synergy 111 hybrid reader photometer (BioTek) at 490 nm with 650 nm of reference wavelength. […] The cell cycle was determined at 24 hours and apoptosis was determined at 48 hours following treatment. […] Then 200 μL of PBS was added to each tube and the cells were analyzed using FACS.

[8] = test system: T24 cells; experiment: Cytoskeleton (F-actin) staining, confocal; details: 24 hours; CBC+THC 8.6+1.4, CBD 10 μg/mL
Experimental: Cytoskeleton staining—T24 cell were seeded on glass bottom cell culture dishes and fixed with 3.7% formaldehyde solution and permeabilized with 0.1% Triton X-100 at room temperature. Fixed cells were blocked in Phosphate Buffered Saline (PBS) containing 1% bovine serum albumin. For actin and nuclear staining cells were incubated with EasyProbes ActinRed 555 Stain, and Hoechst, respectively. Image acquisition was effected using a Leica SP8 laser scanning microscope (Wetzlar, Germany), equipped with a 405 and 552 nm solid state lasers, HCX PL APO CS 10×/0.40 or HC PL APO CS 60×/1.2 water immersion objectives (Leica, Wetzlar, Germany) and Leica Application Suite X software (Wetzlar, Germany). Hoechst and ActinRed 555 emission signals were detected with PMT and HyD (hybrid) detectors in ranges of 415-490 and 565-660 nm, respectively. At least 3 images were captured from each slide, and experiments were repeated 4 times.

CCCCCc1cc(O)c2c(c1)OC(C)(CCC=C(C)C)C=C2 (stereo not drawn) [CBC, Cannabichromene]
Calculated (expected) value of cell survival inhibition ([1]; CBC 3.5 + THC 0 μg/ml): −0.2617
Delta between observed and experimental values calculated according to Bliss model ([1]; CBC 3.5 + THC 0 μg/ml): 1.26E−10
Experimental (observed) value of cell survival inhibition ([1]; CBC 3.5 + THC 0 μg/ml): −0.2617
Calculated (expected) value of cell survival inhibition ([1]; CBC 5.5 + THC 0 μg/ml): 0.003989
Delta between observed and experimental values calculated according to Bliss model ([1]; CBC 5.5 + THC 0 μg/ml): 9.96E−11
Experimental (observed) value of cell survival inhibition ([1]; CBC 5.5 + THC 0 μg/ml): 0.003989
Calculated (expected) value of cell survival inhibition ([1]; CBC 7.5 + THC 0 μg/ml): −0.05563
Delta between observed and experimental values calculated according to Bliss model ([1]; CBC 7.5 + THC 0 μg/ml): 1.06E−10
Experimental (observed) value of cell survival inhibition ([1]; CBC 7.5 + THC 0 μg/ml): −0.05563
Calculated (expected) value of cell survival inhibition ([1]; CBC 9.5 + THC 0 μg/ml): −0.061
Delta between observed and experimental values calculated according to Bliss model ([1]; CBC 9.5 + THC 0 μg/ml): 1.06E−10
Experimental (observed) value of cell survival inhibition ([1]; CBC 9.5 + THC 0 μg/ml): −0.061
Calculated (expected) value of cell survival inhibition ([1]; CBC 11.5 + THC 0 μg/ml): 0.2028
Delta between observed and experimental values calculated according to Bliss model ([1]; CBC 11.5 + THC 0 μg/ml): 7.97E−11
Experimental (observed) value of cell survival inhibition ([1]; CBC 11.5 + THC 0 μg/ml): 0.2028
Calculated (expected) value of cell survival inhibition ([1]; CBC 13.5 + THC 0 μg/ml): 0.5088
Delta between observed and experimental values calculated according to Bliss model ([1]; CBC 13.5 + THC 0 μg/ml): 4.91E−11
Experimental (observed) value of cell survival inhibition ([1]; CBC 13.5 + THC 0 μg/ml): 0.5088
cell migration into the scratch [2]: reduced cell migration to a lesser extent than treatment with CBC+THC

CCCCCc1cc(O)c2c(c1)OC(C)(C)[C@@H]1CCC(C)=C[C@@H]21 [THC, Tetrahydrocannabinol]
Delta between observed and experimental values calculated according to Bliss model ([1]; CBC 0 + THC 1 μg/ml): 0
Delta between observed and experimental values calculated according to Bliss model ([1]; CBC 0 + THC 2 μg/ml): 0
Delta between observed and experimental values calculated according to Bliss model ([1]; CBC 0 + THC 3 μg/ml): 0
Delta between observed and experimental values calculated according to Bliss model ([1]; CBC 0 + THC 5 μg/ml): 0
Delta between observed and experimental values calculated according to Bliss model ([1]; CBC 0 + THC 7.5 μg/ml): 0
Delta between observed and experimental values calculated according to Bliss model ([1]; CBC 0 + THC 10 μg/ml): 0
Delta between observed and experimental values calculated according to Bliss model ([1]; CBC 0 + THC 12.5 μg/ml): 0
inhibition at 1 µg/mL ([1]; CBC 0 + THC 1 μg/ml, read-out: Calculated (expected) value of cell survival inhibition): -1.14%
inhibition at 1 µg/mL ([1]; CBC 0 + THC 1 μg/ml, read-out: Experimental (observed) value of cell survival inhibition): -1.14%
inhibition at 2 µg/mL ([1]; CBC 0 + THC 2 μg/ml, read-out: Calculated (expected) value of cell survival inhibition): -3.21%
inhibition at 2 µg/mL ([1]; CBC 0 + THC 2 μg/ml, read-out: Experimental (observed) value of cell survival inhibition): -3.21%
inhibition at 3 µg/mL ([1]; CBC 0 + THC 3 μg/ml, read-out: Calculated (expected) value of cell survival inhibition): -1.37%
inhibition at 3 µg/mL ([1]; CBC 0 + THC 3 μg/ml, read-out: Experimental (observed) value of cell survival inhibition): -1.37%
inhibition at 5 µg/mL ([1]; CBC 0 + THC 5 μg/ml, read-out: Calculated (expected) value of cell survival inhibition): 4.88%
inhibition at 5 µg/mL ([1]; CBC 0 + THC 5 μg/ml, read-out: Experimental (observed) value of cell survival inhibition): 4.88%
inhibition at 7.5 µg/mL ([1]; CBC 0 + THC 7.5 μg/ml, read-out: Calculated (expected) value of cell survival inhibition): -1.83%
inhibition at 7.5 µg/mL ([1]; CBC 0 + THC 7.5 μg/ml, read-out: Experimental (observed) value of cell survival inhibition): -1.83%
inhibition at 10 µg/mL ([1]; CBC 0 + THC 10 μg/ml, read-out: Calculated (expected) value of cell survival inhibition): 4.23%
inhibition at 10 µg/mL ([1]; CBC 0 + THC 10 μg/ml, read-out: Experimental (observed) value of cell survival inhibition): 4.23%
inhibition at 12.5 µg/mL ([1]; CBC 0 + THC 12.5 μg/ml, read-out: Calculated (expected) value of cell survival inhibition): 27%
inhibition at 12.5 µg/mL ([1]; CBC 0 + THC 12.5 μg/ml, read-out: Experimental (observed) value of cell survival inhibition): 27%
cell migration into the scratch [2]: had no effect on cell migration

C=C(C)[C@@H]1CCC(C)=C[C@H]1c1c(O)cc(CCCCC)cc1O [CBD, Cannabidiol]
effect of CB1 and CB2 inverse agonists on CBD cytotoxicity [3]: Only CB2 inverse agonist completely abolished cytotoxicity
CB1 receptor RNA level induction [4]: 1.35 fold
CB2 receptor RNA level induction [5]: 2.32 fold
G2/M-phase cells [6]: 38.3%
cell apoptosis [7]: 81.7%
cell migration into the scratch [2]: marked and significant reduction in the ability of the cells to migrate into the scratch
F-actin filaments in the cell periphery [8]: induced accumulation of F-actin filaments in the cell periphery
